Reference: US11814367B2, “Inhibitors of glycogen synthase 1 (GYS1) and methods of use thereof” (Maze Therapeutics, Inc., priority 2021, dated 2023)

Tests used:
[1] = molecular target: hGYS2 enzyme (recombinant hGYS2/GN1 protein) (Homo sapiens (Human), UniProt P54840); test: GYS2 coupled enzyme assay (PK/LDH); assay type: biochemical; settings: geometric mean of at least 2 assay runs on separate days, read-out: Avg_IC50
Summary of the method: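 Recombinant hGYS2/GN1 (200 nM) with 2 mM UDP-glucose, 0.2% rabbit liver glycogen, 2 mM glucose-6-phosphate; UDP coupled via PK/LDH (2 mM PEP, 0.6 mM NADH). Buffer 50 mM Tris pH 7.5, 2 mM MgCl2, 100 mM KCl, 2.5% DMSO. A340 slope over 10 min; IC50 from Hill fit of duplicates.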

[2] = molecular target: hGYS1 enzyme (recombinant hGYS1/GN1 protein) (Homo sapiens (Human), UniProt P13807); test: GYS1 coupled enzyme assay (PK/LDH); assay type: biochemical; settings: hGYS1/GN1 50 nM, UDP-Glucose 0.8 mM, G6P 1 mM; geometric mean of at least 2 runs
Chain of hGYS1 enzyme (recombinant hGYS1/GN1 protein) (P13807 whole entry): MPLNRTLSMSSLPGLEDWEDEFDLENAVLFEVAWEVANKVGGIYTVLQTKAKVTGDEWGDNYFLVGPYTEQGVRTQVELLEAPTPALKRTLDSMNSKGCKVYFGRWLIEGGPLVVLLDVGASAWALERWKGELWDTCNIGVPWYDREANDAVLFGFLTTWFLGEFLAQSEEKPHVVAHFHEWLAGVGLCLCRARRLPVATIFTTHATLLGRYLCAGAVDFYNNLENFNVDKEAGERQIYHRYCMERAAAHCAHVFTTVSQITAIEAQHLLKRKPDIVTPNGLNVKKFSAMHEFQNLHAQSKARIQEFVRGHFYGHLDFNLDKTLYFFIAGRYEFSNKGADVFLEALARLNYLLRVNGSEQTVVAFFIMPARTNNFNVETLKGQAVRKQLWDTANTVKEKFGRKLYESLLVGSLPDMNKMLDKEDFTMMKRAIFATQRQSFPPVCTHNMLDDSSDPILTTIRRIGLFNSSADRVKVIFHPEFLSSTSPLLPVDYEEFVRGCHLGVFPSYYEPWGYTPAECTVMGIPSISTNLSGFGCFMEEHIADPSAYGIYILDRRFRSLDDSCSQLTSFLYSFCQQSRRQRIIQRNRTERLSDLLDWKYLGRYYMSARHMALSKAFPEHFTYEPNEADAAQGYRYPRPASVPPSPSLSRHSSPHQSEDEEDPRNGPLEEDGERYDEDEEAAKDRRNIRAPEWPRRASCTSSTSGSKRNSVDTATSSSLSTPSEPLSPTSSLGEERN
Chain of hGYS1 enzyme (recombinant hGYS1/GN1 protein) (P46976 whole entry partner): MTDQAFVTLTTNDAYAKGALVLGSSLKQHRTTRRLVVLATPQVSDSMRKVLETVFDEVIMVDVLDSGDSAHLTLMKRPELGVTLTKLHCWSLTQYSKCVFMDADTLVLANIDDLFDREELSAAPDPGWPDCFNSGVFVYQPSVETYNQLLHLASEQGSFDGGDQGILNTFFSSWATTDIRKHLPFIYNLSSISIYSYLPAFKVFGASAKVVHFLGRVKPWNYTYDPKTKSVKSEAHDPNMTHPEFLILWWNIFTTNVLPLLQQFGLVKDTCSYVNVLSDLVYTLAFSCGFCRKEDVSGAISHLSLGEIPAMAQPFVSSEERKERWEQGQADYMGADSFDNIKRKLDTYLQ

Chain of hGYS2 enzyme (recombinant hGYS2/GN1 protein) (P54840 whole entry): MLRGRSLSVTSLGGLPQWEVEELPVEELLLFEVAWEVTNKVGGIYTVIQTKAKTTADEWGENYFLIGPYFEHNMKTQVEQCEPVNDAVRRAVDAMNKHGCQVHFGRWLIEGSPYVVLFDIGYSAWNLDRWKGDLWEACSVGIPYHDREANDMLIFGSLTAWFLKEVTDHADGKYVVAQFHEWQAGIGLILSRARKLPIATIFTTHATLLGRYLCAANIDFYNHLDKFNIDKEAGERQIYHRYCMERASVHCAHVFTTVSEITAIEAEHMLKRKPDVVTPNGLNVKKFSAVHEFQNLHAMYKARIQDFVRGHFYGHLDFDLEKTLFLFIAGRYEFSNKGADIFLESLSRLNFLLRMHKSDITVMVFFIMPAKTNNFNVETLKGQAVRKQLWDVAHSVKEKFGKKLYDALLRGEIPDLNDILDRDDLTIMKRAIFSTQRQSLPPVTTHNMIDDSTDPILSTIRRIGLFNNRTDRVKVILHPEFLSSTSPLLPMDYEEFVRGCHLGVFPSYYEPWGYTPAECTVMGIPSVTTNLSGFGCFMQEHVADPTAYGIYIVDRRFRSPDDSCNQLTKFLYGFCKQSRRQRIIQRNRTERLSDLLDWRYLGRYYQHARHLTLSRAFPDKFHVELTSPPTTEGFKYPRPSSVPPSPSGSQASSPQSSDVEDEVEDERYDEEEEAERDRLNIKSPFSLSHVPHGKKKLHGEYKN
Chain of hGYS2 enzyme (recombinant hGYS2/GN1 protein) (P46976 whole entry partner): as the sequence (P46976 whole entry partner) above

Structure (SMILES) | IC50 [1] [µM] | IC50 [2] [µM]
CC(=O)N1C[C@H](F)C[C@H]1C(=O)N[C@@H](c1ccccc1)c1ccc(C(C)C)cc1 [Compound 207, (2S,4R)-1-acetyl-4-fluoro-N-[(S)-phenyl[4-(propan-2-yl)phenyl]methyl]pyrrolidine-2-carboxamide] | > 100 | 0.387
CC(C)c1ccc([C@@H](NC(=O)[C@@H]2C[C@@H](F)CN2C(=O)Cn2ccnc2)c2ccccc2)cc1 [Compound 23, (2S,4R)-4-fluoro-1-[2-(1H-imidazol-1-yl)acetyl]-N-[(S)-phenyl[4-(propan-2-yl)phenyl]methyl]pyrrolidine-2-carboxamide] | > 100 | 0.07
CC(=O)N1CCN(CC(=O)N2C[C@H](F)C[C@H]2C(=O)N[C@@H](c2ccccc2)c2ccc(C(C)C)cc2)C(=O)C1 [Compound 160, (2S,4R)-1-[2-(4-acetyl-2-oxopiperazin-1-yl)acetyl]-4-fluoro-N-[(S)-phenyl[4-(propan-2-yl)phenyl]methyl]pyrrolidine-2-carboxamide] | > 100 | 0.069
CC(=O)N1C[C@@H](O)C[C@H]1C(=O)N[C@@H](c1ccccc1)c1ccc(C(C)C)cc1 [Compound 204, (2S,4S)-1-acetyl-4-hydroxy-N-[(S)-phenyl[4-(propan-2-yl)phenyl]methyl]pyrrolidine-2-carboxamide] | > 100 | 3.53
CC(C)c1ccc([C@@H](NC(=O)[C@@H]2C[C@@H](F)CN2C(=O)Cn2cncn2)c2ccccc2)cc1 [Compound 16, (2S,4R)-4-fluoro-N-[(S)-phenyl[4-(propan-2-yl)phenyl]methyl]-1-[2-(1H-1,2,4-triazol-1-yl)acetyl]pyrrolidine-2-carboxamide] | > 100 | 0.033
CC(C)c1ccc([C@@H](NC(=O)[C@@H]2C[C@@H](F)CN2C(=O)C(C)n2cnnn2)c2ccccc2)cc1F (single isomer, unassigned) [Compound 767, (2S,4R)-4-fluoro-N-[(S)-[3-fluoro-4-(propan-2-yl)phenyl](phenyl)methyl]-1-[(2S) or (2R)-2-(1H-1,2,3,4-tetrazol-1-yl)propanoyl]pyrrolidine-2-carboxamide] | > 100 | 0.106
CC(C)c1ccc([C@@H](NC(=O)[C@@H]2C[C@@H](F)CN2C(=O)Cn2ccnn2)c2ccccc2)cc1F [Compound 331, (2S,4R)-4-fluoro-N-[(S)-[3-fluoro-4-(propan-2-yl)phenyl](phenyl)methyl]-1-[2-(1H-1,2,3-triazol-1-yl)acetyl]pyrrolidine-2-carboxamide] | > 100 | 0.023
O=C(N[C@@H](c1ccccc1)c1ccc(C2CC2)c(F)c1)[C@@H]1C[C@@H](F)CN1C(=O)Cn1cccn1 [Compound 435, (2S,4R)-N-[(S)-(4-cyclopropyl-3-fluorophenyl)(phenyl)methyl]-4-fluoro-1-[2-(1H-pyrazol-1-yl)acetyl]pyrrolidine-2-carboxamide] | > 100 | 0.149
CC(C)c1ccc([C@@H](NC(=O)[C@@H]2C[C@@H](F)CN2C(=O)Cc2nnco2)c2ccccc2)cc1 (stereo in doubt) [Compound 224, (2RS,4R)-4-fluoro-1-[2-(1,3,4-oxadiazol-2-yl)acetyl]-N-[(S)-phenyl[4-(propan-2-yl)phenyl]methyl]pyrrolidine-2-carboxamide] | > 100 | 0.07
Cc1cn(CC(=O)N2C[C@H](F)C[C@H]2C(=O)N[C@@H](c2ccccc2)c2ccc(C(C)C)c(F)n2)c(=O)n(C)c1=O (relative stereo) [Compound 777, (2S,4R)-1-[2-(3,5-dimethyl-2,4-dioxo-1,2,3,4-tetrahydropyrimidin-1-yl)acetyl]-4-fluoro-N-[(R*)-[6-fluoro-5-(propan-2-yl)pyridin-2-yl](phenyl)methyl] pyrrolidine-2-carboxamide] | > 100 | 0.042
CC(=O)N1C[C@H](F)C[C@H]1C(=O)N[C@@H](c1ccccc1)c1ccc(C2CC2)c(F)c1 [Compound 418, (2S,4R)-1-acetyl-N-[(S)-(4-cyclopropyl-3-fluorophenyl)(phenyl)methyl]-4-fluoropyrrolidine-2-carboxamide] | > 100 | 0.697
COc1cccnc1CCC(=O)N1C[C@H](F)C[C@H]1C(=O)N[C@@H](c1ccccc1)c1ccc(C(C)C)cc1 [Compound 135, (2S,4R)-4-fluoro-1-[3-(3-methoxypyridin-2-yl)propanoyl]-N-[(S)-phenyl[4-(propan-2-yl)phenyl]methyl]pyrrolidine-2-carboxamide] | > 100 | 0.044
CC(C)c1ccc([C@@H](NC(=O)[C@@H]2C[C@@H](F)CN2C(=O)CCCc2cccnc2)c2ccccc2)cc1 [Compound 94, (2S,4R)-4-fluoro-N-[(S)-phenyl[4-(propan-2-yl)phenyl]methyl]-1-[4-(pyridin-3-yl)butanoyl]pyrrolidine-2-carboxamide] | > 100 | 0.188
CC(C)c1ccc([C@@H](NC(=O)[C@@H]2C[C@@H](F)CN2C(=O)[C@@H]2CCC(=O)N2C)c2ccccc2)cc1 [Compound 57, (2S,4R)-4-fluoro-1-[(2S)-1-methyl-5-oxopyrrolidine-2-carbonyl]-N-[(S)-phenyl[4-(propan-2-yl)phenyl]methyl]pyrrolidine-2-carboxamide] | > 100 | 0.231
CC(C)c1ccc([C@@H](NC(=O)[C@@H]2C[C@@H](F)CN2C(=O)Cc2ccc3ncnn3c2)c2ccccc2)cc1 [Compound 118, (2S,4R)-4-fluoro-N-[(S)-phenyl[4-(propan-2-yl)phenyl]methyl]-1-(2-{[1,2,4]triazolo[1,5-a]pyridin-6-yl}acetyl)pyrrolidine-2-carboxamide] | > 100 | 0.02
Cc1nnc(CCC(=O)N2C[C@H](F)C[C@H]2C(=O)N[C@@H](c2ccccc2)c2ccc(C(C)C)cc2)s1 [Compound 62, (2S,4R)-4-fluoro-1-[3-(5-methyl-1,3,4-thiadiazol-2-yl)propanoyl]-N-[(S)-phenyl[4-(propan-2-yl)phenyl]methyl]pyrrolidine-2-carboxamide] | > 100 | 0.064
CC(C)c1ccc([C@@H](NC(=O)[C@@H]2C[C@@H](F)CN2C(=O)Cc2cnn(C)c2)c2ccccc2)cc1 [Compound 50, (2S,4R)-4-fluoro-1-[2-(1-methyl-1H-pyrazol-4-yl)acetyl]-N-[(S)-phenyl[4-(propan-2-yl)phenyl]methyl]pyrrolidine-2-carboxamide] | > 100 | 0.017
CC(Cc1ccncc1)C(=O)N1C[C@H](F)C[C@H]1C(=O)N[C@@H](c1ccccc1)c1ccc(C(C)C)cc1 (stereo partly drawn) [Compound 98, (2S,4R)-4-fluoro-1-[2-methyl-3-(pyridin-4-yl)propanoyl]-N-[(S)-phenyl[4-(propan-2-yl)phenyl]methyl]pyrrolidine-2-carboxamide] | > 100 | 0.244
CC(C)c1ccc([C@@H](NC(=O)[C@@H]2C[C@@H](F)CN2C(=O)C(C)n2cncn2)c2ccccc2)cc1 (stereo partly drawn) [Compound 34, (2S,4R)-4-fluoro-N-[(S)-phenyl[4-(propan-2-yl)phenyl]methyl]-1-[2-(1H-1,2,4-triazol-1-yl)propanoyl]pyrrolidine-2-carboxamide] | > 100 | 0.075
CC(C)c1ccc([C@@H](NC(=O)[C@@H]2C[C@@H](F)CN2C(=O)Cn2ccnn2)c2ccccc2)cc1 (stereo in doubt) [Compound 222, (2RS,4R)-4-fluoro-N-[(S)-phenyl[4-(propan-2-yl)phenyl]methyl]-1-[2-(1H-1,2,3-triazol-1-yl)acetyl]pyrrolidine-2-carboxamide] | > 100 | 0.04
Cc1nc(CC(=O)N2C[C@H](F)C[C@H]2C(=O)N[C@@H](c2ccccc2)c2ccc(C(C)C)cc2)no1 [Compound 29, (2S,4R)-4-fluoro-1-[2-(5-methyl-1,2,4-oxadiazol-3-yl)acetyl]-N-[(S)-phenyl[4-(propan-2-yl)phenyl]methyl]pyrrolidine-2-carboxamide] | > 100 | 0.07
Cc1ccn(CC(=O)N2C[C@H](F)C[C@H]2C(=O)N[C@@H](c2ccccc2)c2ccc(C(C)C)cc2)n1 [Compound 55, (2S,4R)-4-fluoro-1-[2-(3-methyl-1H-pyrazol-1-yl)acetyl]-N-[(S)-phenyl[4-(propan-2-yl)phenyl]methyl]pyrrolidine-2-carboxamide] | > 100 | 0.043
O=C(N[C@@H](c1ccccc1)c1ccc(C2CC2)c(F)c1)[C@@H]1C[C@@H](F)CN1C(=O)Cc1cccc2ncccc12 [Compound 443, (2S,4R)-N-[(S)-(4-cyclopropyl-3-fluorophenyl)(phenyl)methyl]-4-fluoro-1-[2-(quinolin-5-yl)acetyl]pyrrolidine-2-carboxamide] | > 100 | 0.028
CC(C)c1ccc([C@@H](NC(=O)[C@@H]2C[C@@H](F)CN2C(=O)C(C)n2ccnc2)c2ccccc2)cc1 (stereo partly drawn) [Compound 44, (2S,4R)-4-fluoro-1-[2-(1H-imidazol-1-yl)propanoyl]-N-[(S)-phenyl[4-(propan-2-yl)phenyl]methyl]pyrrolidine-2-carboxamide] | > 100 | 0.106
CC(C)c1ccc([C@@H](NC(=O)[C@@H]2C[C@@H](F)CN2C(=O)C2CCNC(=O)C2)c2ccccc2)cc1 (stereo partly drawn) [Compound 93, (2S,4R)-4-fluoro-1-(2-oxopiperidin-4-carbonyl)-N-[(S)-phenyl[4-(propan-2-yl)phenyl]methyl]pyrrolidine-2-carboxamide] | > 100 | 0.108
CC(C)c1ccc([C@@H](NC(=O)[C@@H]2C[C@@H](F)CN2C(=O)C(C)c2ccccn2)c2ccccc2)cc1 (stereo partly drawn) [Compound 64, (2S,4R)-4-fluoro-N-[(S)-phenyl[4-(propan-2-yl)phenyl]methyl]-1-[2-(pyridin-2-yl)propanoyl]pyrrolidine-2-carboxamide] | > 100 | 0.081
